The text below walks through data of patent EP0998939A1, “Chalcone plant extracts for use in therapy” (THE SCHOOL OF PHARMACY, UNIVERSITY OF LONDON, priority 1998, dated 2000).

One assay deals with Blood platelets. The assay can be described thus: Inhibition of blood platelet aggregation (TPA or ADP induced) in platelet rich plasma. It is filed as cell-based, human. Particulars: for Percentage Inhibition of ADP Induced Aggregation: ADP 6.4 µg; for Percentage Inhibition of TPA Induced Aggregation: TPA 0.5µg. Here is the method:
Blood platelets release inflammatory mediators in response to an external stimulus, which affect the proliferation of the cells, which is an important part of the disease psoriasis. • 1. Male human blood was collected via venipucture of the forearm directly in to anticoagulant buffer, from healthy donors who had denied any medication for two weeks, and centrifuged at 1000rpm for 20 minutes at room temperature. • 2. The supernatant was employed as platelet rich plasma (PRP). Platelet poor plasma (PPP) was obtained by centrifuging 1ml of PRP at 11,000 rpm for 10 minutes. • 3. Inhibition of platelet aggregation was tested by adding 2.5µl of a known concentration (containing 10µg or 50µg) of the test compound to a 500µl sample ofPRP for one minute. An aggregation agent was then added as a solution to the sample in a 2.5µl quantity (containing TPA 0.5,µg or ADP 6.4 µg). Aggregation was measured using a dual channel aggregometer . • 4. Aggregation was taken as the % change in light transmission compared to the maximum change produced by TPA or ADP plus the control solution. PRP was used as a standard for zero light transmission and PP for 100% light transmission.

Another assay deals with Female CD1 mice. The assay can be described thus: Topical chemical erythema: inhibition of TPA induced erythema on the mouse ear. It is filed as in vivo. Particulars: for ED50 (dose required to inhibit erythema in at least 50% of the animals): applied to the right ear in 5µl, 20 minutes prior to TPA (0.1µg/5µl); for inhibition of chemically induced (TPA) erythema on the mouse ear, result in words: comparison among extracts or among the three chalcones. Here is the method:
Ref. Williamson E.M. and Evans F. (1981), Inhibition of erythema induced by proinflammatory esters of 12-deoxyphorbol. Acta Pharmacol. Toxicol.,48, 47-52
Female CD1 mice, weighing approximately 20g were used. • 2. Test plant extracts as produced in Example 1 were applied externally to the right ear of each mouse, at predetermined concentrations in 5µl quantities, 20 minutes prior to the application of the irritant compound 12-O-tetradecanoylphorbal-13-acetate (TPA)(0.1µg/5µl). • 3. A […] response was indicated by redness and inflammation of the ear. • 4. Observations were recorded at 2,3,4,6,7, and 24 hours after the application of TPA. Maximum inflammation caused by TPA alone occurs at 6 hours after the application of TPA.
Erythema of the mouse ear is the simplest experiment to perform as mice have translucent ears in which reddening is easily visible. Quantification is subjective, however the erythema can be described as pronounced, slight or absent. • Isoliquiritigenin ED50 (dose required to inhibit erythema in at least 50% of the animals) 20-50,µg • Licochalcone B ED50 5-10µg • Echinatin ED50 5-10µg

Assay [1] has as its system swiss 3T3 mouse fibroblast cells. The assay can be described thus: Cell culture 3[H] thymidine assay, Example 6.3 inhibition of TPA induced proliferation (24 hours prior incubation with compound). It is filed as cell-based. Particulars: compound 24 hours before compound + 0.5µM TPA. As for the experimental part: (§1) Cells used were swiss 3T3 mouse fibroblast cells • 1. 6 x 24 well plates were required for each experiment. • 2. Cells were removed from the standard tissue culture flask using a 1% solution of EDTA and resuspended in 10 ml of media and pipetted off into a falcon tube. • 3. The cells were then spun for 5 minutes at about 2,000rpm. • 4. The existing media was removed, and the cells again resuspended in 10ml of 10% foetal calf serum (FCS) and vortexed. • 5. The 10ml of suspension was then added to 140ml of media and mixed in a sterile jar. 1ml of the media cell suspension was then placed into each well and the plates incubated until confluent, three days .
(§2) • 1. [PCl]Cells were dosed with the test compounds (as specified below) 2 days prior to the addition of 3 [H]thymidine. The cells could only be dosed with a 0.5% solution, 5µl test solution in 1ml cellsuspension i.e. 5µl in 1ml, (TPA - 0.5µM). • 2. 0.5µl of 3[H] thymidine was added per well, therefore 72µl was added to 144µl of media (1%F.C.S.) to dose the corresponding six plates. • 3. 100µl of the media was taken to measure the measure the radioactive dose […], and added to 4ml of scintillation fluid. • 4. The radioactive media was then transferred to sterile specimen tubes and dosed with the test compounds before adding to the cells. • 5. After four hours ofbeing pulsed with radiolabelled thymidine (0.5µCi/ml) the media was removed and washed down the sink. • 6. The cells were washed twice with ice cold phosphate buffered saline (PBS), 0.5ml per well, and incubated for 30 min using ice cold 5% trichloroacetic acid (TCA) ( 1ml) per well at room temperature. • 8. The TCA was then removed and another 1ml of 5% TCA was added for 5 minutes. After the TCA was removed and 0.3NaOH and 0.1% sodium dodecyl sulphate added to each well for 30 minutes (1ml/well). • 9. The contents of each well was added to scintillation vials containing 4ml of scintillation fluid and each sample counted for four minutes using a scintillation counter. Three different assays were carried out using this protocol; • 6.1. Cytotoxicity testing of the compounds. After 48 hours of incubation and the cells were confluent a predetermined quantity of the test compounds was added to the cells. • 6.2. Inhibition of TPA induced proliferation. After 48 hours a preditermined quantity concentration of the test compounds was added to the cells as well as 0.5um of TPA. […] Inhibition of TPA induced proliferation. After 48 hours a predetermined quantity concentration of the test compounds was added to the cells for 24 hours, at 72 hours the media was changed again to contain both test compound and 0.5µM of the TPA. The objective of this experiment was to observe whether the prior incubation with the test compound had any effect on the TPA induced proliferation of the cells.

The test system is the same in assay [2]. Description: Cell culture 3[H] thymidine assay, Example 6.2 inhibition of TPA induced proliferation (compound added together with TPA). It is filed as cell-based. Particulars: with 0.5µM TPA. As for the experimental part: as §1, §2
Assay [3] has the same test system. The assay can be described thus: Cell culture 3[H] thymidine assay, Example 6.1 cytotoxicity testing (normal cell growth). It counts as cell-based. Particulars: for Percentage Inhibition of 3T3 Swiss Fibroblast Growth, Example 6.1: cytotoxicity, no TPA. Here is the method:
as §1, §2

In a further assay the test system is male Wistar rats. The assay can be described thus: UV-B induced erythema (dermatitis) in rat, epidermal thickness and number of epidermal cell layers. It counts as in vivo. Particulars: five days; for No. of cells (epidermal proliferation as compared to the control, no treatment) / Thickness (epidermal thickening as compared to the control, no treatment): control = 100. Here is the method:
Rat UV-B induced dermatitis is characterised by a brownish red lesion with scab formation. Histologically, microvascular dilation, intraepidermal accumulation ofleukocytes and hyperproliferation of epidermal cells are all very similar to the symptoms of psoriasis in man (Nakaguma,H., Int. J.ofExp.Path, 76:65-73, 1995) • 1. Hair on the dorsal skin of male Wistar rats (180g) was clipped and shaved, whilst the rats were under anaesthesia, 24 hours prior to the experiment. • 2. The rats were covered by a black plastic sheeting, with two rectangular holes (about 1cm^2) cut out, thus allowing two exposure sites on the dorsal skin whilst protecting the rest of the animal. • 3. The rats were then exposed to UV-B light (302nm) at a distance of 10cm for six minutes and thirty seconds. The total W-B exposure was 2.4J/cm^2 as measured using a UV-X radiometer. • 4. The test compound was then placed onto one of the exposed areas and an unexposed area at a concentration of 100µg/5µl, in a suitable vehicle solution. • 5. Application of the test compound was repeated for five days. • 6. Histological post-mortem sections were taken on the fifth day, and stained using haematoxylin and eosin. The number ofepidermal cell layers and the epidermal thickness was counted and measured at random. Five animals were used per test group.

The test system of assay [4] is human polymorphonuclear neutrophils. Particulars: properties associated with inflammatory processes; cited from earlier work.
The next assay concerns platelets. Particulars: cited from earlier work.
Where [5] appears, read: Conc. 10µg test compound in 500µl PRP.
The mark [6] stands for this setting: Conc. 50µg test compound in 500µl PRP.
[7] abbreviates: Active Compound Only, unexposed area, 100µg/5µl.
[8] abbreviates: UV Exposure + Active Compound versus UV Exposure, 100µg/5µl.
[9] abbreviates: UV Exposure + Active Compound, 100µg/5µl topical.

≈ marks a conversion by molar mass, not a printed value.

Broadly, the EC50 is the concentration at which the effect is half-maximal. A higher EC50 goes with weaker potency. With `COc1cc(O)ccc1/C=C/C(=O)c1ccc(O)cc1` [Echinatin, echinatin], the “Percentage Inhibition of ADP Induced Aggregation” value with Blood platelets (setting [5]) is reported as 13%; in the assay on Blood platelets (setting [6]), 14%. For the same molecule, in the assay on Blood platelets (setting [6]), the “Percentage Inhibition of TPA Induced Aggregation” value stood at 6%. In addition, in the assay with Female CD1 mice, the “ED50 (dose required to inhibit erythema in at least 50% of the animals)” value lay within 5 to 10 µg. Also, the “inhibition of chemically induced (TPA) erythema on the mouse ear, result in words” value with Female CD1 mice is given as “most effective”. Further, the “Percentage Inhibition of 3T3 Swiss Fibroblast Growth, Example 6.3” value in assay [1] (Concentration 1 µg) was found to be 65%; in assay [1] (Concentration 10 µg), 96%; in assay [1] (Concentration 20 µg), 96%. The entries for the “Percentage Inhibition of 3T3 Swiss Fibroblast Growth, Example 6.2” value in assay [2] (Concentration 1 µg), in assay [2] (Concentration 10 µg) and in assay [2] (Concentration 20 µg) were 42%, 98% and 99%, respectively. In addition, the “Percentage Inhibition of 3T3 Swiss Fibroblast Growth, Example 6.1” value in assay [3] (Concentration 1 µg) is 85%; in assay [3] (Concentration 1 µg, listed as echinatin), “up to 82%”; in assay [3] (Concentration 10 µg), 94%; in assay [3] (Concentration 20 µg), 99%. Also, the EC50 in assay [3] (Mus musculus, normal cell growth of 3T3 cells, exact value not established) was in the range of 0.1 to 1 µg/mL (≈ 0.37 to 3.7 µM).

As to `COc1c(/C=C/C(=O)c2ccc(O)cc2)ccc(O)c1O` [Licochalcone B, licochalcone B], the “Percentage Inhibition of TPA Induced Aggregation” value is on record as 4% with Blood platelets (setting [5]) and 13% in the assay with Blood platelets (setting [6]). Further, in the assay on Blood platelets (setting [6]), the “Percentage Inhibition of ADP Induced Aggregation” value is listed as 15%. The “ED50 (dose required to inhibit erythema in at least 50% of the animals)” value in the assay with Female CD1 mice lay within 5 to 10 µg. Further, the “inhibition of chemically induced (TPA) erythema on the mouse ear, result in words” value in the assay with Female CD1 mice is listed as “most effective”. For the same molecule, the “Percentage Inhibition of 3T3 Swiss Fibroblast Growth, Example 6.3” value in assay [1] (Concentration 0.01 µg) is listed as 2%; in assay [1] (Concentration 0.1 µg) it was 37%; in assay [1] (Concentration 1 µg) it was 22%; in assay [1] (Concentration 10 µg) it was 69%; in assay [1] (Concentration 20 µg) it was 85%. In addition, the “No. of cells (epidermal proliferation as compared to the control, no treatment)” value in the assay on male Wistar rats (setting [7]) came out at 103%; in the assay on male Wistar rats (setting [9]), 129%. Moreover, the “Thickness (epidermal thickening as compared to the control, no treatment)” value was 96% in the assay with male Wistar rats (setting [7]) and 135% in the assay with male Wistar rats (setting [9]). Besides, in the assay on male Wistar rats (setting [8]), the “Percentage inhibition of epidermal proliferation (No. of cells, in brackets)” value was “(83) %”. Besides, the “Percentage inhibition of epidermal thickening (in brackets)” value with male Wistar rats (setting [8]) is on record as “(75) %”. Besides, the “effect on degranulation in human polymorphonuclear neutrophils” value in assay [4] is reported as “had an effect”. Moreover, the “Percentage Inhibition of 3T3 Swiss Fibroblast Growth, Example 6.2” value in assay [2] (Concentration 0.01 µg) is “+26%”; in assay [2] (Concentration 0.1 µg), 17%; in assay [2] (Concentration 1 µg), 31%; in assay [2] (Concentration 10 µg), 32%; in assay [2] (Concentration 20 µg), 73%. Moreover, the “Percentage Inhibition of 3T3 Swiss Fibroblast Growth, Example 6.1” value in assay [3] (Concentration 0.01 µg) amounted to 16%; in assay [3] (Concentration 0.1 µg), 13%; in assay [3] (Concentration 1 µg), 41%; in assay [3] (Concentration 10 µg) it was 55%; in assay [3] (Concentration 20 µg), 86%.

As to `CCCCCCCCCCCCCC(=O)O[C@@H]1[C@@H](C)[C@@]2(O)[C@@H](C=C(CO)C[C@]3(O)C(=O)C(C)=C[C@@H]23)[C@@H]2C(C)(C)[C@]12OC(C)=O` [TPA, 12-O-tetradecanoylphorbol-13-acetate], the “concentration causing irreversible platelet aggregation” value in the assay on platelets is given as 0.2 µM.
